Patent publication US10745398B2, “2-(het)aryl-substituted fused heterocycle derivatives as pesticides” (Bayer CropScience Aktiengesellschaft, priority 2015, dated 2020)

Columns and labels:
[1] = test system: caterpillars of the armyworm (Spodoptera frugiperda); experiment: Spodoptera frugiperda - spray test; format: in vivo; conditions: application rate 500 g/ha, maize leaf discs, after 7 days
Description: (§1) Solvent: 78.0 parts by weight of acetone • • 1.5 parts by weight of dimethylformamide
(§2) Emulsifier: alkylaryl polyglycol ether
(§3) To produce a suitable active compound preparation, 1 part by weight of active compound is dissolved with the stated parts by weight of solvent and made up with water containing an emulsifier concentration of 1000 ppm until the desired concentration is attained. To produce further test concentrations, the preparation is diluted with emulsifier-containing water.
Leaf discs of maize (Zea mays) are sprayed with an active compound preparation of the desired concentration and, after drying, populated with caterpillars of the armyworm (Spodoptera frugiperda).
After 7 days, the efficacy in % is determined. 100% means that all the caterpillars have been killed; 0% means that no caterpillar has been killed.

[2] = log P (neutral) by HPLC on reversed-phase column (C 18), EEC Directive 79/831 Annex V.A8; format: physicochemical; conditions: HPLC reversed-phase C 18, 55° C., neutral range pH 7.8, ammonium hydrogencarbonate/acetonitrile
[3] = test system: larvae of the mustard beetle (Phaedon cochleariae); experiment: Phaedon cochleariae - spray test; format: in vivo; conditions: application rate 500 g/ha, Chinese cabbage leaf discs, after 7 days
Description: as §1, §2, §3
After 7 days, the efficacy in % is determined. 100% means that all the beetle larvae have been killed; 0% means that no beetle larvae have been killed.

[4] = test system: L1 larvae of the Australian sheep blowfly (Lucilia cuprina); experiment: Lucilia cuprina test; format: in vivo; conditions: application rate 100 ppm, after 2 days
Description: (§4) Solvent: dimethyl sulphoxide
To produce a suitable active compound preparation, 10 mg of active compound are mixed with 0.5 ml of dimethyl sulphoxide, and the concentrate is diluted with water to the desired concentration.
About 20 L1 larvae of the Australian sheep blowfly (Lucilia cuprina) are transferred into a test vessel containing minced horsemeat and the active compound preparation of the desired concentration.
After 2 days, the kill in % is determined. 100% means that all the larvae have been killed; 0% means that no larvae have been killed.

[5] = test system: unfed adult cat fleas (Ctenocephalides felis); experiment: Ctenocephalides felis - oral test; format: in vivo; conditions: application rate 100 ppm in citrated cattle blood, after 2 days
Description: as §4
To produce a suitable active compound preparation, 10 mg of active compound are mixed with 0.5 ml of dimethyl sulphoxide. Dilution with citrated cattle blood gives the desired concentration.
About 20 unfed adult cat fleas (Ctenocephalides felis) are placed into a chamber which is closed at the top and bottom with gauze. A metal cylinder whose bottom end is closed with parafilm is placed onto the chamber. The cylinder contains the blood/active compound preparation, which can be imbibed by the fleas through the parafilm membrane.
After 2 days, the kill in % is determined. 100% means that all of the fleas have been killed; 0% means that none of the fleas have been killed.

[6] = test system: engorged adult female cattle ticks (Boophilus microplus); experiment: Boophilus microplus - injection test; format: in vivo; conditions: application rate 20 μg/animal, assessed after 7 days
Description: as §4
To produce a suitable active compound preparation, 10 mg of active compound are mixed with 0.5 ml of solvent and the concentrate is diluted with solvent to the desired concentration.
1 μl of the active compound solution is injected into the abdomen of 5 engorged adult female cattle ticks (Boophilus microplus). The animals are transferred into dishes and kept in a climate-controlled room.
Efficacy is assessed after 7 days by laying of fertile eggs. Eggs which are not visibly fertile are stored in a climate-controlled cabinet until the larvae hatch after about 42 days. An efficacy of 100% means that none of the ticks has laid any fertile eggs; 0% means that all the eggs are fertile.

[7] = test system: green peach aphid (Myzus persicae); experiment: Myzus persicae - spray test; format: in vivo; conditions: application rate 500 g/ha, Chinese cabbage leaf discs, after 5-6 days
Description: Solvent: 78 parts by weight of acetone • • 1.5 parts by weight of dimethylformamide
as §2, §3
Discs of Chinese cabbage leaves (Brassica pekinensis) infested by all stages of the green peach aphid (Myzus persicae) are sprayed with an active compound preparation of the desired concentration.
After 5-6 days, the efficacy in % is determined. 100% means that all the aphids have been killed; 0% means that no aphids have been killed.

Row | Structure (SMILES) | efficacy (caterpillars killed) [1] [%] | log P (neutral) [2] | efficacy (beetle larvae killed) [3] [%] | efficacy (kill in %) [4] [%] | efficacy (kill in %) [5] [%] | efficacy (no laying of fertile eggs) [6] [%] | efficacy (aphids killed) [7] [%] | chromatographic logP ([2]; reversed-phase HPLC column (C 18))
1 | CCS(=O)(=O)c1ccc(-n2nnn(-c3ccccc3Cl)c2=O)nc1-c1nc2cc(C(F)(F)F)ncc2n1C [Example I-4] | 100 |  |  |  |  |  |  | 
2 | CCS(=O)(=O)c1ccc(N2CCN(c3ccc(Cl)cc3)C2=O)nc1-c1nc2cc(C(F)(F)F)ncc2n1C [Example I-5] | 100 | Example I-5: logP (neutral): 3.86 ^1H-NMR(400.0 MHz, d6-DMSO): δ = | 100 |  |  |  |  | 
3 | CCS(=O)(=O)c1ccc(-n2ccc(-c3ccc(Cl)cc3)n2)nc1-c1nc2cc(C(F)(F)F)ncc2n1C [Example I-6] | 83 | Example I-6: logP (neutral): 4.62 ^1H-NMR(400.0 MHz, d6-DMSO): δ = | 100 | 100 | 90 |  |  | 
4 | CCS(=O)(=O)c1ccc(-n2cc(-c3ncccc3Cl)cn2)nc1-c1nc2cc(C(F)(F)F)ncc2n1C [Example I-7] | 100 | Example I-7: logP (neutral): 3.66 ^1H-NMR(400.0 MHz, d6-DMSO): δ = | 100 | 100 | 100 |  |  | 
5 | CCS(=O)(=O)c1ccc(-n2cc(-c3ccccc3)cn2)nc1-c1nc2cc(C(F)(F)F)ncc2n1C [Example I-9] | 100 | Example I-9: logP (neutral): 3.92 ^1H-NMR(400.0 MHz, d6-DMSO): δ = | 100 |  |  |  |  | 
6 | CCS(=O)(=O)c1ccc(-n2cc(-c3ccc(Cl)cc3)cn2)nc1-c1nc2cc(C(F)(F)F)ncc2n1C [Example I-10] |  | Example I-10: logP (neutral): 4.33 ^1H-NMR(400.0 MHz, d6-DMSO): δ = | 100 |  |  |  |  | 
7 | CCS(=O)(=O)c1ccc(-n2cc(-c3ccc(F)cc3)cn2)nc1-c1nc2cc(C(F)(F)F)ncc2n1C [Example I-11] |  | Example I-11: logP (neutral): 4.17 ^1H-NMR(400.0 MHz, d6-DMSO): δ = | 100 |  |  |  |  | 
8 | CCS(=O)(=O)c1ccc(-n2cc(-c3cccc(Br)c3)cn2)nc1-c1nc2cc(C(F)(F)F)ncc2n1C [Example I-12] | 100 | Example I-12: logP (neutral): 4.48 ^1H-NMR(400.0 MHz, d6-DMSO): δ = | 100 | 100 | 100 | 90 |  | 
9 | CCS(=O)(=O)c1ccc(-n2ccc(-c3ccccc3Cl)n2)nc1-c1nc2cc(C(F)(F)F)ncc2n1C [Example I-13] |  | Example I-13: logP (neutral): 4.58 ^1H-NMR(400.0 MHz, d6-DMSO): δ = | 100 |  |  |  |  | 
10 | CCS(=O)(=O)c1ccc(-n2ccc(-c3ccco3)n2)nc1-c1nc2cc(C(F)(F)F)ncc2n1C [Example I-14] |  | Example I-14: logP (neutral): 3.47 1H-NMR(601.6 MHz, d6-DMSO): □ = |  |  |  |  |  | 
11 | CCS(=O)(=O)c1ccc(-n2cnn(-c3c(F)cccc3F)c2=O)nc1-c1nc2cc(C(F)(F)F)ncc2n1C [Example I-20] |  | Example I-20: logP (neutral): 3.13 1H-NMR(400.0 MHz, d6-DMSO): □ = |  |  |  |  |  | 
12 | CCS(=O)(=O)c1ccc(-n2nnn(-c3ccc(Cl)cc3)c2=O)nc1-c1nc2cc(C(F)(F)F)ncc2n1C [Example I-21] | 100 | Example I-21: logP (neutral): 3.71: 1H-NMR(400.0 MHz, d6-DMSO): □ = | 100 | 100 | 80 |  |  | 
13 | CCS(=O)(=O)c1ccc(-n2nc(C(F)(F)F)n(-c3ccccc3)c2=O)nc1-c1nc2cc(C(F)(F)F)ncc2n1C [Example I-22] | 100 |  | 100 |  |  |  |  | 
14 | CCS(=O)(=O)c1ccc(-n2ccc(-c3cccc(Cl)c3)n2)nc1-c1nc2cc(C(F)(F)F)ncc2n1C [Example I-23] | 100 | Example I-23: logP (neutral): 4.64 1H-NMR(400.0 MHz, d6-DMSO): □ = | 100 | 100 | 100 |  |  | 
15 | CCS(=O)(=O)c1ccc(-n2cc(Cl)c(-c3ccc(F)c(Cl)c3)n2)nc1-c1nc2cc(C(F)(F)F)ncc2n1C [Example I-25] |  | Example I-25: logP (neutral): 5.23 1H-NMR(400.0 MHz, d6-DMSO): □ = | 100 |  |  |  |  | 
16 | CCS(=O)(=O)c1ccc(-n2cnc(-c3ccccn3)n2)nc1-c1nc2cc(C(F)(F)F)ncc2n1C [Example I-26] | 100 | Example I-26: logP (neutral): 2.43 1H-NMR(400.0 MHz, d6-DMSO): □ = | 100 |  |  |  | 90 | 
17 | CCS(=O)(=O)c1ccc(-n2cnc(-c3cccnc3)n2)nc1-c1nc2cc(C(F)(F)F)ncc2n1C [Example I-27] | 100 | Example I-27: logP (neutral): 2.54 1H-NMR(400.0 MHz, d6-DMSO): □ = | 100 |  |  |  |  | 
18 | CCS(=O)(=O)c1ccc(-c2cnn(-c3ccccc3F)c2)nc1-c1nc2cc(C(F)(F)F)ncc2n1C [Example I-28] | 100 | Example I-28: logP (neutral): 3.38 1H-NMR(400.0 MHz, d6-DMSO): □ = | 100 | 100 | 100 |  |  | 
19 | CCS(=O)(=O)c1ccc(-c2cc(-c3ccccc3)no2)nc1-c1nc2cc(C(F)(F)F)ncc2n1C [Example I-31] | 100 | Example I-31: logP (neutral): 3.81 1H-NMR(400.0 MHz, d6-DMSO): □ = |  |  |  |  |  | 
20 | CCS(=O)(=O)c1ccc(-n2cnn(-c3ccccc3F)c2=O)nc1-c1nc2cc(C(F)(F)F)ccc2n1C [Example I-34] | 100 |  | 100 |  |  |  |  | 
21 | CCS(=O)(=O)c1ccc(-n2cnn(-c3ccccc3F)c2=O)nc1-c1cn2cnc(C(F)(F)F)cc2n1 [Example I-35, 4-{5-(Ethylsulfonyl)-6-[7-(trifluoromethyl)imidazo[1,2-c]pyrimidine-2-yl]pyridin-2-yl}-2-(2-fluorophenyl)-2,4-dihydro-3H-1,2,4-triazol-3-one] | 100 |  | 100 |  |  |  |  | 3.16
